{
  "source": "patent US20170354148A1",
  "about": "“SAFENED HERBICIDAL COMPOSITIONS CONTAINING HALAUXIFEN AND METHODS OF USE THEREOF IN BRASSICA SPECIES” (Dow AgroSciences LLC, priority 2016, published 2017)",
  "key": {"[1]": {"system": "rutabaga (Brassica napus var. napobrassica, BRSNA)", "test": "Example 5 greenhouse trials, postemergence visual injury", "conditions": "BRSNA, 20-22 d"}, "[2]": {"system": "winter oilseed rape (Brassica napus, BRSNW)", "test": "Example 5 greenhouse trials, postemergence visual injury", "conditions": "BRSNW, 20-22 d"}, "[3]": {"system": "kale/Chinese kale (Brassica alboglabra, BRSAG)", "test": "Example 5 greenhouse trials, postemergence visual injury", "conditions": "BRSAG, 20-22 d"}, "[4]": {"system": "turnip or Polish canola (Brassica rapa, BRSRR)", "test": "Example 5 greenhouse trials, postemergence visual injury", "conditions": "BRSRR, 20-22 d"}, "[5]": {"system": "spring oilseed rape (Brassica napus, BRSNS)", "test": "Example 4 field trials (Europe), postemergence crop safety, visual phytotoxicity"}, "[6]": {"system": "Nexera™ canola (Brassica napus, BRSNN-NEX)", "test": "Example 5 greenhouse trials, postemergence visual injury", "conditions": "BRSNN-NEX, 20-22 d"}, "[7]": {"system": "winter oilseed rape (Brassica napus, BRSNW)", "test": "Example 4 field trials (Europe), postemergence crop safety, visual phytotoxicity", "conditions": "for Mean % Visual Injury / Mean % Visual Deformation: alone or mixed"}, "[8]": {"system": "Roundup Ready® canola (Brassica napus, RR-BRSNN)", "test": "Example 5 greenhouse trials, postemergence visual injury", "conditions": "RR-BRSNN, 20-22 d"}},
  "data": [
    {"smiles": "O=C(O)c1nc(Cl)ccc1Cl", "note": "[Clopyralid-olamine, 2-hydroxyethanaminium 3,6-dichloro-2-pyridinecarboxylate]", "values": [
      {"measurement": "% Visual Injury Obs", "setting": "[1]; 50 g ai/ha alone", "result": 0, "unit": "%"},
      {"measurement": "% Visual Injury Obs", "setting": "[1]; 100 g ai/ha alone", "result": 0, "unit": "%"},
      {"measurement": "% Visual Injury Obs", "setting": "[1]; 200 g ai/ha alone", "result": 0, "unit": "%"},
      {"measurement": "% Visual Injury Obs", "setting": "[2]; 50 g ai/ha alone", "result": 0, "unit": "%"},
      {"measurement": "% Visual Injury Obs", "setting": "[2]; 100 g ai/ha alone", "result": 0, "unit": "%"},
      {"measurement": "% Visual Injury Obs", "setting": "[2]; 200 g ai/ha alone", "result": 0, "unit": "%"},
      {"measurement": "% Visual Injury Obs", "setting": "[3]; 50 g ai/ha alone", "result": 0, "unit": "%"},
      {"measurement": "% Visual Injury Obs", "setting": "[3]; 100 g ai/ha alone", "result": 0, "unit": "%"},
      {"measurement": "% Visual Injury Obs", "setting": "[3]; 200 g ai/ha alone", "result": 0, "unit": "%"},
      {"measurement": "% Visual Injury Obs", "setting": "[4]; 50 g ai/ha alone", "result": 0, "unit": "%"},
      {"measurement": "% Visual Injury Obs", "setting": "[4]; 100 g ai/ha alone", "result": 0, "unit": "%"},
      {"measurement": "% Visual Injury Obs", "setting": "[4]; 200 g ai/ha alone", "result": 0, "unit": "%"},
      {"measurement": "Mean % Visual Growth Inhibition", "setting": "[5]; Trial 1, 14DAA1, 125 g ae/ha alone", "result": 3.0, "unit": "%"},
      {"measurement": "Mean % Visual Growth Inhibition", "setting": "[5]; Trial 1, 14DAA1, 250 g ae/ha alone", "result": 3.0, "unit": "%"},
      {"measurement": "Mean % Visual Growth Inhibition", "setting": "[5]; Trial 2, 17DAA1, 100 g ae/ha alone", "result": 0.0, "unit": "%"},
      {"measurement": "Mean % Visual Growth Inhibition", "setting": "[5]; Trial 2, 17DAA1, 120 g ae/ha alone", "result": 2.3, "unit": "%"},
      {"measurement": "Mean % Visual Growth Inhibition", "setting": "[5]; Trial 2, 24DAA1, 100 g ae/ha alone", "result": 0.0, "unit": "%"},
      {"measurement": "Mean % Visual Growth Inhibition", "setting": "[5]; Trial 2, 24DAA1, 120 g ae/ha alone", "result": 2.0, "unit": "%"},
      {"measurement": "% Visual Injury Obs", "setting": "[6]; 50 g ai/ha alone", "result": 0, "unit": "%"},
      {"measurement": "% Visual Injury Obs", "setting": "[6]; 100 g ai/ha alone", "result": 0, "unit": "%"},
      {"measurement": "% Visual Injury Obs", "setting": "[6]; 200 g ai/ha alone", "result": 0, "unit": "%"},
      {"measurement": "Mean % Visual Injury", "setting": "[7]; 6DAA1, halauxifen-methyl 5, clopyralid-olamine 120 g ae/ha", "result": 1, "unit": "%"},
      {"measurement": "Mean % Visual Injury", "setting": "[7]; 7DAA1, halauxifen-methyl 5, clopyralid-olamine 120 g ae/ha", "result": 1, "unit": "%"},
      {"measurement": "Mean % Visual Injury", "setting": "[7]; 19DAA1, halauxifen-methyl 5, clopyralid-olamine 120 g ae/ha", "result": 1, "unit": "%"},
      {"measurement": "Mean % Visual Growth Inhibition", "setting": "[7]; 85DAA1, 120 g ae/ha alone", "result": 3.8, "unit": "%"},
      {"measurement": "Mean % Visual Deformation", "setting": "[7]; Trial 1, 27DAA1, halauxifen-methyl 5, clopyralid-olamine 120 g ae/ha", "result": 23.8, "unit": "%"},
      {"measurement": "Mean % Visual Deformation", "setting": "[7]; Trial 2, 6DAA1, halauxifen-methyl 5, clopyralid-olamine 120 g ae/ha", "result": 1.0, "unit": "%"},
      {"measurement": "Mean % Visual Deformation", "setting": "[7]; Trial 2, 7DAA1, halauxifen-methyl 5, clopyralid-olamine 120 g ae/ha", "result": 1.0, "unit": "%"},
      {"measurement": "% Visual Injury Obs", "setting": "[8]; 50 g ai/ha alone", "result": 0, "unit": "%"},
      {"measurement": "% Visual Injury Obs", "setting": "[8]; 100 g ai/ha alone", "result": 0, "unit": "%"},
      {"measurement": "% Visual Injury Obs", "setting": "[8]; 200 g ai/ha alone", "result": 0, "unit": "%"}
    ]}
  ]
}
